In PubChem BioAssay (NCI):
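All cell lines were grown in 96-well plates and treated with compound for 48 hours. TGI is the concentration that stops growth completely.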

Columns and labels:
Assay in all cases: NCI tumour cell line growth inhibition, 48 h
786-0 renal = tested on: 786-0 renal
MDA-N = tested on: MDA-N
HS 578T breast = tested on: HS 578T breast
SN12C renal = tested on: SN12C renal
ACHN renal = tested on: ACHN renal
PC-3 prostate = tested on: PC-3 prostate
RPMI-8226 leukemia = tested on: RPMI-8226 leukemia
HOP-92 NSCLC = tested on: HOP-92 NSCLC
SK-MEL-28 melanoma = tested on: SK-MEL-28 melanoma
SK-MEL-2 melanoma = tested on: SK-MEL-2 melanoma
COLO 205 colon = tested on: COLO 205 colon
MDA-MB-231 breast = tested on: MDA-MB-231 breast
SF-539 CNS = tested on: SF-539 CNS
HCT-116 colon = tested on: HCT-116 colon
SK-OV-3 ovarian = tested on: SK-OV-3 ovarian
OVCAR-8 ovarian = tested on: OVCAR-8 ovarian
KM12 colon = tested on: KM12 colon
NCI-H23 lung = tested on: NCI-H23 lung
CAKI-1 renal = tested on: CAKI-1 renal
M14 melanoma = tested on: M14 melanoma
LOX IMVI melanoma = tested on: LOX IMVI melanoma
OVCAR-3 ovarian = tested on: OVCAR-3 ovarian
SF-268 CNS = tested on: SF-268 CNS
RXF 393 renal = tested on: RXF 393 renal
NCI-H460 lung = tested on: NCI-H460 lung
HOP-62 NSCLC = tested on: HOP-62 NSCLC
UACC-62 melanoma = tested on: UACC-62 melanoma
MALME-3M melanoma = tested on: MALME-3M melanoma
HCT-15 colon = tested on: HCT-15 colon
SW-620 colon = tested on: SW-620 colon
MOLT-4 leukemia = tested on: MOLT-4 leukemia
OVCAR-4 ovarian = tested on: OVCAR-4 ovarian
SNB-75 CNS = tested on: SNB-75 CNS
K-562 leukemia = tested on: K-562 leukemia
EKVX NSCLC = tested on: EKVX NSCLC
HT29 colon = tested on: HT29 colon
NCI-H522 lung = tested on: NCI-H522 lung
SF-295 CNS = tested on: SF-295 CNS
OVCAR-5 ovarian = tested on: OVCAR-5 ovarian
BT-549 breast = tested on: BT-549 breast
A549 NSCLC = tested on: A549 NSCLC
SK-MEL-5 melanoma = tested on: SK-MEL-5 melanoma
NCI/ADR-RES ovarian = tested on: NCI/ADR-RES ovarian
HCC-2998 colon = tested on: HCC-2998 colon
CCRF-CEM leukemia = tested on: CCRF-CEM leukemia
U251 CNS = tested on: U251 CNS
SNB-19 CNS = tested on: SNB-19 CNS
UACC-257 melanoma = tested on: UACC-257 melanoma
TK-10 renal = tested on: TK-10 renal
IGROV1 ovarian = tested on: IGROV1 ovarian
DU-145 prostate = tested on: DU-145 prostate
MCF7 breast = tested on: MCF7 breast
MDA-MB-435 = tested on: MDA-MB-435
UO-31 renal = tested on: UO-31 renal
SR leukemia = tested on: SR leukemia
NCI-H226 lung = tested on: NCI-H226 lung
A498 renal = tested on: A498 renal
HL-60(TB) leukemia = tested on: HL-60(TB) leukemia

## Cn1c(=O)n2n(c1=O)C(S(=O)(=O)c1ccccc1)C2 (centres undefined)
786-0 renal
  TGI: > 100 µM
MDA-N
  TGI: > 100 µM
HS 578T breast
  TGI: > 100 µM
SN12C renal
  TGI: > 100 µM
ACHN renal
  TGI: > 100 µM
PC-3 prostate
  TGI: > 100 µM
RPMI-8226 leukemia
  TGI: > 100 µM
HOP-92 NSCLC
  TGI: > 100 µM
SK-MEL-28 melanoma
  TGI: > 100 µM
SK-MEL-2 melanoma
  TGI: > 100 µM
COLO 205 colon
  TGI: > 100 µM
MDA-MB-231 breast
  TGI: > 100 µM
SF-539 CNS
  TGI: > 100 µM
HCT-116 colon
  TGI: > 100 µM
SK-OV-3 ovarian
  TGI: > 100 µM
OVCAR-8 ovarian
  TGI: > 100 µM
KM12 colon
  TGI: > 100 µM
NCI-H23 lung
  TGI: > 100 µM
CAKI-1 renal
  TGI: > 100 µM
M14 melanoma
  TGI: > 100 µM
LOX IMVI melanoma
  TGI: > 100 µM
OVCAR-3 ovarian
  TGI: > 100 µM
SF-268 CNS
  TGI: > 100 µM
RXF 393 renal
  TGI: > 100 µM
NCI-H460 lung
  TGI: > 100 µM
HOP-62 NSCLC
  TGI: > 100 µM
UACC-62 melanoma
  TGI: > 100 µM
MALME-3M melanoma
  TGI: > 100 µM
HCT-15 colon
  TGI: > 100 µM
SW-620 colon
  TGI: > 100 µM
MOLT-4 leukemia
  TGI: > 100 µM
OVCAR-4 ovarian
  TGI: > 100 µM
SNB-75 CNS
  TGI: > 100 µM
K-562 leukemia
  TGI: > 100 µM
EKVX NSCLC
  TGI: > 100 µM
HT29 colon
  TGI: > 100 µM
NCI-H522 lung
  TGI: > 100 µM
SF-295 CNS
  TGI: > 100 µM
OVCAR-5 ovarian
  TGI: > 100 µM
BT-549 breast
  TGI: > 100 µM
A549 NSCLC
  TGI: > 100 µM
SK-MEL-5 melanoma
  TGI: > 100 µM
NCI/ADR-RES ovarian
  TGI: > 100 µM
HCC-2998 colon
  TGI: > 100 µM
CCRF-CEM leukemia
  TGI: > 100 µM
U251 CNS
  TGI: > 100 µM
SNB-19 CNS
  TGI: > 100 µM
UACC-257 melanoma
  TGI: > 100 µM
TK-10 renal
  TGI: > 100 µM
IGROV1 ovarian
  TGI: > 100 µM
DU-145 prostate
  TGI: > 100 µM
MCF7 breast
  TGI: > 100 µM
MDA-MB-435
  TGI: > 100 µM
UO-31 renal
  TGI: > 100 µM

## Clc1nssc1=Nc1nonc1-c1ccccc1
786-0 renal
  TGI: > 100 µM
MDA-N
  TGI: 41.2 µM
SR leukemia
  TGI: 68.6 µM
SN12C renal
  TGI: 42.4 µM
ACHN renal
  TGI: 36.1 µM
PC-3 prostate
  TGI: > 100 µM
RPMI-8226 leukemia
  TGI: 63.3 µM
HOP-92 NSCLC
  TGI: > 100 µM
SK-MEL-28 melanoma
  TGI: > 100 µM
SK-MEL-2 melanoma
  TGI: > 100 µM
COLO 205 colon
  TGI: 36.7 µM
MDA-MB-231 breast
  TGI: 34.5 µM
SF-539 CNS
  TGI: 66.1 µM
HCT-116 colon
  TGI: > 100 µM
SK-OV-3 ovarian
  TGI: > 100 µM
OVCAR-8 ovarian
  TGI: > 100 µM
NCI-H226 lung
  TGI: > 100 µM
KM12 colon
  TGI: 96 µM
NCI-H23 lung
  TGI: 76.6 µM
CAKI-1 renal
  TGI: 34.6 µM
M14 melanoma
  TGI: 37.2 µM
LOX IMVI melanoma
  TGI: > 100 µM
OVCAR-3 ovarian
  TGI: > 100 µM
A498 renal
  TGI: > 100 µM
RXF 393 renal
  TGI: 59.6 µM
NCI-H460 lung
  TGI: > 100 µM
HOP-62 NSCLC
  TGI: > 100 µM
UACC-62 melanoma
  TGI: > 100 µM
MALME-3M melanoma
  TGI: 99.2 µM
HCT-15 colon
  TGI: > 100 µM
SW-620 colon
  TGI: > 100 µM
MOLT-4 leukemia
  TGI: 69.8 µM
OVCAR-4 ovarian
  TGI: > 100 µM
SNB-75 CNS
  TGI: 64.2 µM
K-562 leukemia
  TGI: 70.1 µM
EKVX NSCLC
  TGI: > 100 µM
HT29 colon
  TGI: 52.2 µM
NCI-H522 lung
  TGI: 43.4 µM
SF-295 CNS
  TGI: > 100 µM
HL-60(TB) leukemia
  TGI: 34.9 µM
OVCAR-5 ovarian
  TGI: 49.3 µM
BT-549 breast
  TGI: 89.8 µM
A549 NSCLC
  TGI: > 100 µM
SK-MEL-5 melanoma
  TGI: 37 µM
NCI/ADR-RES ovarian
  TGI: 98.3 µM
HCC-2998 colon
  TGI: > 100 µM
CCRF-CEM leukemia
  TGI: 90.8 µM
U251 CNS
  TGI: > 100 µM
SNB-19 CNS
  TGI: > 100 µM
UACC-257 melanoma
  TGI: > 100 µM
IGROV1 ovarian
  TGI: 82 µM
DU-145 prostate
  TGI: 53.5 µM
MCF7 breast
  TGI: > 100 µM
MDA-MB-435
  TGI: > 100 µM
UO-31 renal
  TGI: 36.3 µM
